These results are taken from patent US9532569B2 (INSTITUT NATIONAL DE LA RECHERCHE AGRONOMIQUE, priority 2012, dated 2017).

The test system of one data set is pea rms4 mutant. Type of data set: in vivo, Pisum sativum L. As to the method: The protocol used is in accordance with that described in example 4 above. Compound concentrations of 100 nM and 3 μM were tested. A negative control consisting of the solvent alone (<<CTL 0>>) was also tested.
The number of dead buds following the treatment with 3 μM of compound was also determined after 8 days of treatment (on groups of 48 plants).

Data set [1] is described as follows: Stability in aqueous medium (UPLC, % nondegraded compound). The data set is classed as physicochemical. As to conditions: second experiment, longer incubation times; 50 μg/ml in methanol/water: 1/4, pH 6.7, 21° C.; FIG. 2. As for the experimental part:
The stability in aqueous medium of the compound (IIa) according to the invention and that of GR24 as comparative compound was evaluated in the following way.
Each compound was diluted in acetone (1 ml), then 50 μl of each solution were diluted with methanol (175 μl) and water (750 μl) so as to obtain a compound concentration of 50 μg/ml.
The aqueous solution thus obtained was incubated at 21° C. in HPLC vials.
Indanol (25 μl of a solution at 1 mg/ml in acetone) was added to each solution in order to serve as an internal standard.
The degradation of each compound over time was monitored by analysis of samples taken from the solution at various time intervals, by Ultra Performance Liquid Chromatograpy (UPLC) by means of an Acquity UPLC HSS C18 column (1.8 μm, 2.1×50 mm), eluted first of all with a solution of acetonitrile at 5% in water containing 0.1% of formic acid, for 0.5 min, then with a gradient of 5% to 100% of acetonitrile in water containing 0.1% of formic acid, for 6.5 min, and with 100% of acetonitrile containing 0.1% of formic acid for 3 min. The column was maintained at a temperature of 40° C., with a flow of 0.6 ml/min.
The compounds eluted from the column were detected with a photodiode array detector.
The relative amount of nondegraded compound in the solution was determined by comparison with the internal standard.
In a second experiment, the stability in aqueous medium of the compounds (IIa) and (IIIb) according to the invention, and that of GR24 as comparative compound, was evaluated according to the protocol described above.

Another data set has as its system Striga hermonthica. As to the kind of experiment: Germinative activity on parasitic plants. Type of data set: in vivo. The following applies: counted after 4 days, 30° C. As to the method: (§1) In this example, the germinative activity of the compounds in accordance with the invention (IIa) and (IIIb) and of the comparative compound GR24 was evaluated on the parasitic plants: Orobanche cumana, Orobanche minor, Striga hermonthica, Phelipanche ramosa (pv T and pv C).
(§2) The test protocol used was the following.
Seeds of Striga hermonthica (Del.) Benth were collected at Gadarif, Eastern Sudan, in 1999.
(§3) The seeds are stored dry in the dark at 25° C.
(§4) The compounds to be studied were resuspended in acetone at 10 mmol·l^−1, then diluted with water to 1 mmol·l^−1 (water/acetone; v/v; 99/1). Dilutions of 1×10^−3 mol·l^−1 to 1×10^−15 mol·l^−1 were then prepared in a water/acetone mixture (v/v; 99/1). Seeds of parasitic plants were surface-sterilized according to the protocol described in the publication by Vieira Dos Santos et al. (2003), then resuspended in sterile water (10 g·l^−1) and distributed on a 96-well plate (in a proportion of 50 μl, i.e. approximately 100 seeds per well). After preconditioning (7 days, 21° C., in the dark, plate hermetically sealed, except for the seeds of S. hermonthica, which were preconditioned at 30° C.), the compounds to be studied were added and the volumes adjusted to 100 μl with water (water/acetone; v/v; 999/1).
In a plate, a range of concentrations from 10^−13 mol·l^−1 to 10^−6 mol·l^−1 was applied for GR24 and (IIa) and from 10^−12 to 10^−5 mol·l^−1 for (IIIb). Controls were carried out with a water/acetone mixture (v/v; 999/1) and without seeds. The plates were incubated so as to allow germination (21° C., in the dark or 30° C. for Striga hermonthica.). After 4 days, the seeds which had germinated were counted under a stereomicroscope (SZX10, Olympus). […] For each compound tested, dose-response curves (g=f(c), where g is the germination percentage and c the concentration (mol·l^−1)), and the EC50 (median effective concentration) were modeled on the basis of a 4-parameter logistic curve calculated with SigmaPlot® 10.0.
(§5) The percentages of maximum germination induced by the compounds tested for each parasitic plant were determined.

The test system of the next data set is Phelipanche ramosa pv C. Description: Germinative activity on parasitic plants. The data set is classed as in vivo. As to conditions: counted after 4 days. As to the method:
as §1, §2
(§6) Two populations of Phelipanche ramosa were used in this study, pathovar (pv) C and T, described in the publication by Benharrat et al. (2005). Seeds of Phelipanche ramosa pathovar C were collected at Saint Martin de Fraigneau, France, on broomrapes parasitizing winter oilseed rape (Brassica napus L.) in 2005 and seeds of Phelipanche ramosa pathovar T were collected in Sarthe, France, on broomrapes developing on hemp (Cannabis sativa L.) in 2007.
as §3, §4
(§7) In a plate, a range of concentrations from 10^−13 mol·l^−1 to 10^−6 mol·l^−1 was applied for GR24 and (IIa) and from 10^−12 to 10^−5 mol·l^−1 for (IIIb). Controls were carried out with a water/acetone mixture (v/v; 999/1) and without seeds. The plates were incubated so as to allow germination (21° C., in the dark or 30° C. for Striga hermonthica.). After 4 days, the seeds which had germinated were counted under a stereomicroscope (SZX10, Olympus). The seeds were considered to have germinated when the radicle was sticking out of the seed tegument. Each germination test was repeated at least 3 times. For each compound tested, dose-response curves (g=f(c), where g is the germination percentage and c the concentration (mol·l^−1)), and the EC50 (median effective concentration) were modeled on the basis of a 4-parameter logistic curve calculated with SigmaPlot® 10.0.
as §5

In a further data set the test system is Phelipanche ramosa pv T. As to the kind of experiment: Germinative activity on parasitic plants. Type of data set: in vivo. As to conditions: counted after 4 days. As for the experimental part:
as §1, §2, §6, §3, §4, §7, §5

In a further data set the test system is Orobanche minor. Description: Germinative activity on parasitic plants. Type of data set: in vivo. As to conditions: counted after 4 days. As for the experimental part:
as §1, §2
(§8) Seeds of Orobanche cumana Wallr. were collected from broomrapes parasitizing sunflower (Helianthus annuus L.), at Longeville-sur-mer, France, in 2009; seeds of clover broomrape (Orobanche minor Sm.) from a parasite of red clover (Trifolium pratense L.) were obtained from Professor K. Yoneyama (Utsunomiya University, Japan).
as §3, §4, §7, §5

The subject of the next data set is Orobanche cumana. Description: Germinative activity on parasitic plants. The data set is classed as in vivo. As to conditions: counted after 4 days. As to the method:
as §1, §2, §8, §3, §4, §7, §5

The test system of the next data set is pea rms1 mutants. Description: Hydroponic culture test in pea. Type of data set: in vivo, Pisum sativum L. The following applies: 1 μM in hydroponic culture solution, 8 days; FIG. 12. As for the experimental part:
For this example, ramosus (rms1) hyperbranched pea (Pisum sativum L.) mutants were used.
More particularly, rms1 (rms1-10) hyperbranched mutant plants were used. The nutritive solution (100%) was prepared by adding the following macronutrients to 1000 l of water: HNO3 (0.28 l), (NH4)2HPO4 (120 g), Ca(NO3)2 (40 g), Mg(NO3)2 (140 g), KNO3 (550 g), (NH4)2MoO4 (0.05 g), H3BO3 (15 g), MnSO4.H2O (2 g), ZnSO4.7H2O (1 g), CuSO4.5H2O (0.25 g), Sequestrene® (10 g) (Fe-EDTA solution). The pea seeds were germinated in moist sand for 6 days, then placed in holes of a lid (35 holes/lid, 20 mm in diameter) of an opaque PVC pot containing the hydroponic culture solution (47 l, pH 5.8).
In a first experiment, acetone or the compound to be tested (dissolved in acetone) was added to the hydroponic culture solution so as to obtain a final concentration of 0 or 1 μM of compound to be tested and 0.01% of acetone.
The hydroponic culture solution was continually aerated by means of an aquarium pump and replaced each week. 8 days after the start of the treatment, the lengths of bud/branch (nodes 1 to 6) were measured with an electronic sliding caliper.
This experiment was carried out for the compounds according to the invention (IIa) and (IIIb), and also the GR24 compound as comparative compound. A negative control (<<CTL 0>>), corresponding to a treatment with the solvent alone, was also carried out.
The results (mean data on 20 plants), in terms of, on the one hand, length of the branches at nodes 3 to 5 and, on the other hand, plant height, are shown respectively in FIGS. 11 and 12.
The same experiment was carried out for the compound in accordance with the invention (II″g) and the comparative compound GR24. Dimethyl sulfoxide (DMSO) or the compound to be tested, dissolved in DMSO, was added to the hydroponic culture solution so as to obtain a final concentration of 0 or 3 μM of compound to be tested and 0.01% of DMSO.
The results (mean data on 10 to 12 plants), in terms, on the one hand, of length of the branches at nodes 3 to 4 and, on the other hand, of plant height, are shown respectively in FIGS. 13 and 14.

A further data set deals with MRC5 cells. As to the kind of experiment: In vitro cytotoxicity study on MRC5 cells (MTS). The data set is classed as cell-based, human. As to conditions: Homo sapiens, MRC5, 72 hours, ± standard error, read-out: Percentage inhibition of MRC5 cell growth. As to the method: The cytotoxicity of the compound (IIa) according to the invention, and that of GR24 and of GR5 as comparative compounds, was evaluated in vitro, at concentrations of 10^−4 M and 10^−5 M, on MRC5 cells, in DMSO, in the following way.
MRC5 cells (human lung (fibroblasts) were cultured in Dulbecco's modified Eagle medium (DMEM) supplemented with: 25 mM of glucose, 10% (v/v) of fetal calf serum, 100 IU of penicillin, 100 μg/ml of streptomycin and 1.5 μg/ml of fungizone, and kept under 5% of CO2 at 37° C.
96-well plates were seeded with 2100 MRC5 cells per well in 200 μl of medium. After 24 hours, each of the compounds dissolved in DMSO was added for 72 hours, at a final concentration of 10^−4 M or 10^−5 M in a fixed volume of DMSO. The controls received an equal volume of DMSO.
The viable cell number was measured at 490 nm with the MTS reagent (Promega), and, for each compound, the concentration causing 50% inhibition of cell growth, IC50, was calculated.

With `COC(=O)/C=C/C(C)=C/OC1OC(=O)C(C)=C1C` (stereo not shown) [Compound (IIIb)], the “length of bud/branch at node 3 (toxicity)” value with pea rms4 mutant (100 nM and 3 μM, 8 days after treatment at node 3, FIG. 15) is “absence of effects of the compounds in accordance with the invention (IIa) and (IIIb) compared with a negative control, and between the two treatment doses”. Besides, in the data set with pea rms4 mutant (3 μM, 8 days of treatment, groups of 48 plants, FIG. 16), the “number of dead buds after treatment” value was “did not cause the death of any bud”. The “chemical stability in aqueous solution (% of nondegraded compound as a function of incubation time)” value in data set [1] is on record as “even better than that of the compound (IIa)”. Also, the “Percentage of maximum germination induced” value in the data set on Striga hermonthica is reported as “no (no significant germination compared to the negative control (<2%))”; in the data set on Phelipanche ramosa pv C, “no (no significant germination compared to the negative control (<2%))”; in the data set on Phelipanche ramosa pv T, 88 ± 6%; in the data set with Orobanche minor, 60 ± 6%; in the data set on Orobanche cumana, “no (no significant germination compared to the negative control (<2%))”.
As for `CC1=CC(O/C=C2/C(=O)OC3c4ccccc4C[C@H]23)OC1=O` (stereo partly shown) [GR24, reference compound], the plant height result with pea rms1 mutants is “significant effect on plant height is also demonstrated, comparable between the comparative compound GR24 and the compound in accordance with the invention (IIa)”. The “Percentage of maximum germination induced” value with Striga hermonthica worked out at 57 ± 5%; in the data set with Phelipanche ramosa pv C, 89 ± 6%; with Phelipanche ramosa pv T, 87 ± 7%; with Orobanche minor it was 81 ± 5%; in the data set on Orobanche cumana, 78 ± 5%. Besides, in the data set with MRC5 cells (10^−4M), the inhibition at 100 µM was found to be 97 ± 1%. For the same compound, the inhibition at 10 µM with MRC5 cells (10^−5M) was determined as 0%.

The term inhibition denotes the percentage by which the read-out fell short of the control.
